# Experimental data reported in ChEMBL document CHEMBL1201862, “PubChem BioAssay data set” (2004).
# “And” between values parts separate entries of the source, which are not always exact repeats. Equal entries are not always repeated. The source made the active and inactive calls.
# How the values were obtained:
# [1] = HEK-293T cell viability reduction – luminescence, B-cell screen hits, cytotoxicity control for BCR NF-kB inhibitor project, dose response (AID 489021); format: functional, cell-based;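 further: HEK-293T cells carrying an NF-kB luciferase reporter; cells exposed to compound for about 14 hours before viability readout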
# [2] = molecular target: G-protein coupled receptor 55 (Homo sapiens, UniProt Q9Y2T6); test: inhibition of LPI-stimulated GPR55 beta-arrestin translocation – imaging, U2OS, beta-arrestin-GFP, LPI agonist, primary screen (AID 2013); format: functional;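 further: antagonist potency measured as reduced agonist-driven arrestin aggregation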
# G-protein coupled receptor 55, sequence (Q9Y2T6 whole entry): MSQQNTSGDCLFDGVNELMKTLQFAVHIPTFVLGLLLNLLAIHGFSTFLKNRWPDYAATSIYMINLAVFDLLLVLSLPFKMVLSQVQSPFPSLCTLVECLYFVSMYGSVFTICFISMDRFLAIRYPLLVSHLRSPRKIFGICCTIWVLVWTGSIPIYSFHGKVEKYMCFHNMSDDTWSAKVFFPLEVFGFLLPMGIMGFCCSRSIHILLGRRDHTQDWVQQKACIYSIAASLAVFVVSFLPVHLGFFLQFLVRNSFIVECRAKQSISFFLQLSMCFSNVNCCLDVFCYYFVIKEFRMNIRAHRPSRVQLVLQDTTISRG
# [3] = molecular target: T1, Kappa-type opioid receptor (Homo sapiens, UniProt P41145); format: functional
# T1 sequence (P41145 whole entry): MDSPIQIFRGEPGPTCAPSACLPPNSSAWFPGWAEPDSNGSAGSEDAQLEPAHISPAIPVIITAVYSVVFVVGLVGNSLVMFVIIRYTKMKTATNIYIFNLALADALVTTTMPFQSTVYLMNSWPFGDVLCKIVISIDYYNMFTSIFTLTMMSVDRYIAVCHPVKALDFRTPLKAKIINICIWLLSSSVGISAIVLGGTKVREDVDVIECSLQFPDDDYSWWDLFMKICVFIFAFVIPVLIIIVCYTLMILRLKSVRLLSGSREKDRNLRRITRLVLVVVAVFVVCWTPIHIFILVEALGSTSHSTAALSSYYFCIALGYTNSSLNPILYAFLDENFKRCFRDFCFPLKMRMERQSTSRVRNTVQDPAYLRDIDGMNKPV
# [4] = THP-1 cell cytotoxicity, dose response, cytotoxicity control for non-replicating M. tuberculosis project (AID 489025); format: functional
# [5] = viability loss in HEK293 cells – cell-based, plate reader, cherry-picked samples, cytotoxicity control, dose response (AID 743446); format: functional
# [6] = HepG2 cell cytotoxicity, dose response, cytotoxicity control for non-replicating M. tuberculosis project (AID 489018); format: functional; conditions: Mycobacterium tuberculosis
# [7] = Luminescence Cell-Based Dose Confirmation HTS to Identify Inhibitors of Platelet Dense Granule Release. [Related pubchem assays: 1663 (Primary HTS), 1678 (Summary of Project)]; format: functional
# [8] = blockers of bursicon-stimulated LGR2 cAMP reporter – cell-based, HEK293, CRE-luciferase reporter, cherry pick, set 2, dose response (AID 743343); format: functional;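 further: transfected cells were stimulated with diluted bursicon conditioned medium after compound addition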
# [9] = toxicity toward HepG2 liver cells – cell-based, plate reader, cherry-pick, antagonist series, cytotoxicity control, dose response (AID 743416); format: functional
# Vero = test: cells; format: functional; conditions: Chlorocebus sabaeus
# [10] = molecular target: Luciferin 4-monooxygenase (Photinus pyralis, UniProt P08659); test: inhibition of purified Photinus pyralis luciferase – biochemical, luminescence, dose response (AID 1891)
# Luciferin 4-monooxygenase, sequence (P08659 whole entry): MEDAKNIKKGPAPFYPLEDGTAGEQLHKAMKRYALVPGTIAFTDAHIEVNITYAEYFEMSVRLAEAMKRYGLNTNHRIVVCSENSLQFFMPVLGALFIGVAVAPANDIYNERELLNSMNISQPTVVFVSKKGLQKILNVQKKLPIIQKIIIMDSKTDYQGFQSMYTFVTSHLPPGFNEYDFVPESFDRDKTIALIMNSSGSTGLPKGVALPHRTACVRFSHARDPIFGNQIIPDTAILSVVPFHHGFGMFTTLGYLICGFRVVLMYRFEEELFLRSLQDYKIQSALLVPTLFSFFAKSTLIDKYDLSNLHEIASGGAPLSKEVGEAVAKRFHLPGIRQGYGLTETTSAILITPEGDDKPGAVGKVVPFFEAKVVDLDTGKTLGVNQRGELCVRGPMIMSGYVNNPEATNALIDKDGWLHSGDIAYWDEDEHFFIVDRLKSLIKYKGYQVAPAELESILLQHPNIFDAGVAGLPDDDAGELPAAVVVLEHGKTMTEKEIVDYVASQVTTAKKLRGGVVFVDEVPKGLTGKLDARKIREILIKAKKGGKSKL
# [11] = Vero E6 cell cytotoxicity, dose response, cytotoxicity control for non-replicating M. tuberculosis project, secondary assay (AID 492998); format: functional, VeroE6; conditions: Vero C1008
# [12] = A549 cell cytotoxicity, dose response, cytotoxicity control, plate reader, cherry-pick, antagonist series (AID 743412); format: functional, cell-based
# [13] = blockade of melanocortin 4 receptor signaling – cell-based, plate reader, cherry pick, counter-screen for LGR2 antagonist project, dose response (AID 743444); format: functional;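 further: transfected HEK 293 cells stimulated with alpha-MSH peptide; potency of inhibitors of the alpha-MSH evoked signal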
# INS1 = test: INS-1E survival protection against cytokine death – cell-based, luminescence, retest, dose response (AID 449756); format: functional; conditions: Rattus norvegicus;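 further: cell death triggered by IL-1 beta plus TNF-alpha plus IFN-gamma mixture; protective hits raise ATP signal compared with cytokine alone wells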
# Beta-galactosidase [14] = molecular target: T2, Beta-galactosidase (Escherichia coli, UniProt Q8VNN2); format: functional
# T2 sequence (Q8VNN2 whole entry): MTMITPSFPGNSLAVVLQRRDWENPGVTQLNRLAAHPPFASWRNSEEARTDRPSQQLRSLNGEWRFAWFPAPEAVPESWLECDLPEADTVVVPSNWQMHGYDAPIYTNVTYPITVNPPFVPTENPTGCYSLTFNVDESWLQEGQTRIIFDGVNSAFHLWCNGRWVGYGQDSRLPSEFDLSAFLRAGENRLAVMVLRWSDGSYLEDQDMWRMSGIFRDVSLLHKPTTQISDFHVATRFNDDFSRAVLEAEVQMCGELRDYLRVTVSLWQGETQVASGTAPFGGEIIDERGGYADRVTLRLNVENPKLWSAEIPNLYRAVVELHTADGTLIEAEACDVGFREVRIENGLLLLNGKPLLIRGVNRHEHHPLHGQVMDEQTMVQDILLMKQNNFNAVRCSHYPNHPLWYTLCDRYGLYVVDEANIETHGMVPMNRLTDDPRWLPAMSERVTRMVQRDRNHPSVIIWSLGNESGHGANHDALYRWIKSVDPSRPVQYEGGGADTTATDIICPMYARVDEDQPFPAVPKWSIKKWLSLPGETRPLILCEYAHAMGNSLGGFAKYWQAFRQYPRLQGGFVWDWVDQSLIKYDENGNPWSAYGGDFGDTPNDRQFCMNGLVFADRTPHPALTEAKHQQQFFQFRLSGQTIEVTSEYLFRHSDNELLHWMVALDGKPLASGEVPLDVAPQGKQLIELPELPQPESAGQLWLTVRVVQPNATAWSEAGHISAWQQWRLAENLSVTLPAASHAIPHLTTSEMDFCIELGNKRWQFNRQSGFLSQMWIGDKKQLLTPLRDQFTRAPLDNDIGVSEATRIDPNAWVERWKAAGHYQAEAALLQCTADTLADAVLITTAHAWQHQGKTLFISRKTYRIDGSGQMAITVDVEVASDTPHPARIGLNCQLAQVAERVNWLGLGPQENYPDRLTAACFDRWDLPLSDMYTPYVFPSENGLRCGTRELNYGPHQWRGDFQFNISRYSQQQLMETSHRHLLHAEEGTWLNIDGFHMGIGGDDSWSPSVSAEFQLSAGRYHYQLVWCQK
# Streptococcus = test: GAS UMAA2166 growth inhibition – luminescence, BacTiterGlo, counter-screen for streptokinase expression inhibitor project, dose response (AID 1915); format: functional, organism-based;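 further: potency for reduction of bacterial viability or growth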
# cells = format: functional
# [15] = molecular target: T1, Kappa-type opioid receptor; format: functional; remark: listed apart in the source
# [16] = tested on: Streptococcus sp. 'group A'; test: Streptococcus pyogenes SK(-)GAS viability under kanamycin – luminescence, BacTiterGlo, confirmation, counter-screen for streptokinase expression inhibitor project, dose response (AID 1900); format: functional, organism-based
# [17] = molecular target: T3, Mannose-6-phosphate isomerase (Homo sapiens, UniProt P34949); test: phosphomannose isomerase inhibition – biochemical, fluorescence intensity, confirmation (AID 1535)
# T3 sequence (P34949 whole entry): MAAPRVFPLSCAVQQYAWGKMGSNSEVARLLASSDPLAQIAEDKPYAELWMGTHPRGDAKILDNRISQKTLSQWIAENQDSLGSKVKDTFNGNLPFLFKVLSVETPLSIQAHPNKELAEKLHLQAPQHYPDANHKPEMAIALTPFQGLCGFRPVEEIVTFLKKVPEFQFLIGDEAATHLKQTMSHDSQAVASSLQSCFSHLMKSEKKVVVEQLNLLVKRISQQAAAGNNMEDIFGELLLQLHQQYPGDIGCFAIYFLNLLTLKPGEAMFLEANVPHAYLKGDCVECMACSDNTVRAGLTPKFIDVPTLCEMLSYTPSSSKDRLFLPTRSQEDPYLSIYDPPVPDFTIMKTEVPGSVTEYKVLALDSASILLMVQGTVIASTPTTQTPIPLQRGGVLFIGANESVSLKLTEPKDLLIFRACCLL
# Phosphomannomutase 2 = molecular target: T4, Phosphomannomutase 2 (Homo sapiens, UniProt O15305); test: Counter screen SAR assay for PMM2 inhibitors via a fluorescence intensity assay. [Related pubchem assays (depositor defined):AID1545, AID1574]
# T4 sequence (O15305 whole entry): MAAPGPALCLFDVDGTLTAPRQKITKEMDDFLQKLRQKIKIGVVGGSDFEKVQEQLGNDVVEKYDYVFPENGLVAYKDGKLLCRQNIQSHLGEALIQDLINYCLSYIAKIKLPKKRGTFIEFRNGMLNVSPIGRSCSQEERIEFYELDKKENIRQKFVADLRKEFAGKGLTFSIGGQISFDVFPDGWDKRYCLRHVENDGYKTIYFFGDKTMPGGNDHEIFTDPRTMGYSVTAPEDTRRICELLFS
# [18] = molecular target: Alkaline phosphatase, placental type (Homo sapiens, UniProt P05187); test: human placental alkaline phosphatase inhibition – biochemical, luminescence, confirmation (AID 1512); format: functional
# Alkaline phosphatase, placental type, sequence (P05187 whole entry): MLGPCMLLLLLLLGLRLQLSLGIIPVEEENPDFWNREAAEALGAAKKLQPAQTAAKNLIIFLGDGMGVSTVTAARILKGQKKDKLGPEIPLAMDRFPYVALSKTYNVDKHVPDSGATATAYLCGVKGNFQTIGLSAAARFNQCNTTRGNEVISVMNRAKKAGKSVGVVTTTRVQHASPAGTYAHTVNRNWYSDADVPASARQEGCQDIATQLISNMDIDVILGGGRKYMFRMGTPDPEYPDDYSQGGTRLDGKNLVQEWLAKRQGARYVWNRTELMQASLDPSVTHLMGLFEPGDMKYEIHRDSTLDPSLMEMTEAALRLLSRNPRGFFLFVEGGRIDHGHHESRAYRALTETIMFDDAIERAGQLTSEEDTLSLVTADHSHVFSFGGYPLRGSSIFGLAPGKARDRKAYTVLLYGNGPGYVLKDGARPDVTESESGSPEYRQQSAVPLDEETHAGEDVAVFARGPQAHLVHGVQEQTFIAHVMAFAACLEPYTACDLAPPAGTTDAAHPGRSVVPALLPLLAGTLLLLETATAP
# Cytochrome P450 2C9 = Cytochrome P450 2C9 (Homo sapiens, UniProt P11712)
# Cytochrome P450 2C9, sequence (P11712 whole entry): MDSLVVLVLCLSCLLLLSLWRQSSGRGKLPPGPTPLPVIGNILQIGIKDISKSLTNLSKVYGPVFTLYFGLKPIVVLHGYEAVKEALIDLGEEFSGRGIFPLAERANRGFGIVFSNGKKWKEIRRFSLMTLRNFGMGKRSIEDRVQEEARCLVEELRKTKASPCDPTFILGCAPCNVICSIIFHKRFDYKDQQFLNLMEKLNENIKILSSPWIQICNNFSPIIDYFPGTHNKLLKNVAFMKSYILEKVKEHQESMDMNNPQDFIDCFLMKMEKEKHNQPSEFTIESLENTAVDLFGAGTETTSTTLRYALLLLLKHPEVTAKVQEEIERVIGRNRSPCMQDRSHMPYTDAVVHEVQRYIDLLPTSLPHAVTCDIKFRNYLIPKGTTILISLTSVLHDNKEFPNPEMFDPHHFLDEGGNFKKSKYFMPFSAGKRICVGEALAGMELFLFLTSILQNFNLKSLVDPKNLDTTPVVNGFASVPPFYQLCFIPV
# HEK293 [19] = test: cells; format: functional, cell-based; conditions: Homo sapiens
# Tumor necrosis factor = Tumor necrosis factor (Homo sapiens, UniProt P01375); test: analog potency on TNFa NF-kB signaling – cell-based, revised, SAR follow-up (AID 2337); format: functional
# Tumor necrosis factor, sequence (P01375 whole entry, the tested form may be a part): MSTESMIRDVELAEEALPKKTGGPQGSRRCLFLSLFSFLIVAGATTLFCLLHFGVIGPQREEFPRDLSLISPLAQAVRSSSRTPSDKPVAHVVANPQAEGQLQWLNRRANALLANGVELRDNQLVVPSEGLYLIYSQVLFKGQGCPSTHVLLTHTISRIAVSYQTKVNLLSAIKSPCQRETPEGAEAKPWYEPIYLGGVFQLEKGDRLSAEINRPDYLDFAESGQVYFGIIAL
# [20] = molecular target: Nucleotide-binding oligomerization domain-containing protein 1 (Homo sapiens, UniProt Q9Y239); test: blockers of NOD1 pathway activity – revised, SAR follow-up (AID 2333); format: functional
# Nucleotide-binding oligomerization domain-containing protein 1, sequence (Q9Y239 whole entry, the tested form may be a part): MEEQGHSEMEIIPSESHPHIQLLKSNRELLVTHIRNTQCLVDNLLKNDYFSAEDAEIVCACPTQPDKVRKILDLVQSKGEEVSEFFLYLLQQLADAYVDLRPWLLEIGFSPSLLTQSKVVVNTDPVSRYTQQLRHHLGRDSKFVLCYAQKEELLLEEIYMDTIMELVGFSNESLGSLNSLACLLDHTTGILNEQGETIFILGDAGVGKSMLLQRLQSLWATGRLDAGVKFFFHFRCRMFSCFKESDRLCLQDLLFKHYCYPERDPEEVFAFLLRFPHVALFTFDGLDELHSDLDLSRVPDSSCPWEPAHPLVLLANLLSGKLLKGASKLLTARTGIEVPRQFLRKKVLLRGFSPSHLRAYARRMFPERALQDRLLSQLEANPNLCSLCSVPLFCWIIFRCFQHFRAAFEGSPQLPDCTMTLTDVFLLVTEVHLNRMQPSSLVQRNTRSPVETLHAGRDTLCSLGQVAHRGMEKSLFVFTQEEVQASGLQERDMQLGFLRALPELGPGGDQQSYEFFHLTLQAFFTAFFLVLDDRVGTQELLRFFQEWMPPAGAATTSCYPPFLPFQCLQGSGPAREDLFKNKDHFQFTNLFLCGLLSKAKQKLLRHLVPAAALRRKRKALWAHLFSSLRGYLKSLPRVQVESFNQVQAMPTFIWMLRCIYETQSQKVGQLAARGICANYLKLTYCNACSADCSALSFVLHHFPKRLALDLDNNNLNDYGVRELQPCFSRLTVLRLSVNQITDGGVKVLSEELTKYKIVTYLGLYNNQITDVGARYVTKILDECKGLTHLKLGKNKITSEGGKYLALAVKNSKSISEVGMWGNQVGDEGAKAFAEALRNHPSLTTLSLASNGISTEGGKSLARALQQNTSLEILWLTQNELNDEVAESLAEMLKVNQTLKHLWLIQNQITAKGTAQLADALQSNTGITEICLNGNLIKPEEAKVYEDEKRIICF
# HEK293 [21] = test: cells; format: functional, cell-based; conditions: Homo sapiens; remark: listed apart in the source
# HEK293 [22] = test: inhibition of NOD1-driven NF-kB reporter – cell-based, luminescence, uHTS, primary screen (AID 1578); format: functional; conditions: Homo sapiens
# HEK293 [23] = test: cells; conditions: Homo sapiens
# HEK293 [24] = test: NOD2 signaling inhibitors in MDP-stimulated cells, cell-based, uHTS, luminescence (AID 2001); format: functional; conditions: Homo sapiens
# [25] = molecular target: T5, C-C chemokine receptor type 6 (Homo sapiens, UniProt P51684); test: antagonism of CCR6 beta-arrestin recruitment – cell-based, luminescent beta-arrestin readout, dose response (AID 504728); format: functional
# T5 sequence (P51684 whole entry): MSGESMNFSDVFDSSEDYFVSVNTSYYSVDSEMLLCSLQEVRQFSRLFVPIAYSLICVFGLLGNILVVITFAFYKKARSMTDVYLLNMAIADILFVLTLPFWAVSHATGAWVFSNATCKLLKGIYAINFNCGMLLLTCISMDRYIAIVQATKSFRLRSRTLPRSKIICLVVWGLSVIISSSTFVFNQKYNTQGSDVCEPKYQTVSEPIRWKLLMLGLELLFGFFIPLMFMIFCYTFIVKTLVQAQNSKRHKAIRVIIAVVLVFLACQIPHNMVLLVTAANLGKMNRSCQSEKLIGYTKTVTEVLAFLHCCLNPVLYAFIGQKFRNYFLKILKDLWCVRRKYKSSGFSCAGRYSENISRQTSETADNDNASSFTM
# Beta-galactosidase [26] = molecular target: T2, Beta-galactosidase; test: detection-enzyme interference by beta-gal modulators – biochemical, E. coli enzyme, set 3, artefact control for CCR6 antagonist project, dose response (AID 504712); format: functional
structure (smiles),measurement,setting,value
O=C(CCCN1C(=O)S/C(=C\C=C\c2ccccc2)C1=O)Nc1ccc(O)cc1,IC50,[1],> 80 µM (inactive)
CCN1CC2=C(OC(N)=C(C#N)C2c2cccs2)/C(=C/c2cccs2)C1 (centres undefined),IC50,[2],5.29 µM (active)
C=CCn1c(S)nnc1CCc1cc(C(C)(C)C)c(O)c(C(C)(C)C)c1,IC50,[2],3 µM (active)
CCOc1ccc2nc(NC(=O)c3ccccn3)sc2c1,IC50,[3],> 32 µM
same,CC50,[4],8.2 µM (active)
same,AC50,[5],8.52 µM (active)
same,CC50,[6],19.3 µM (active)
same,EC50,[7],5.58 µM (active)
same,AC50,[8],2 µM (active)
same,AC50,[9],5.82 µM (active)
same,CC50,Vero,20.4 µM (active)
same,EC50,[10],0.407 µM (active)
same,CC50,[11],7.54 µM (active)
same,AC50,[12],3.99 µM (active)
same,AC50,[13],2.42 µM (active)
same,AC50,INS1,3.32 µM (active)
same,EC50,Beta-galactosidase [14],> 31.5 µM (inactive)
same,EC50,Streptococcus,7.36 µM (active)
same,IC50,cells,0.43 µM (active)
same,IC50,[15],6.51 µM (active)
same,EC50,[16],2.98 µM (active)
Cc1nn(-c2ccccc2)c(S)c1C=Nc1cccc([N+](=O)[O-])c1,IC50,[17],31.1 µM (active)
same,IC50,Phosphomannomutase 2,> 100 µM (inactive)
O=C(CCc1ccccc1)Nc1nnc[nH]1,IC50,[18],> 100 µM (inactive)
same,AC50,Cytochrome P450 2C9,39.8 µM (inconclusive)
CCOC(=O)c1ccc(NC(=O)c2ccc(CN3CCc4ccccc4C3)cc2)cc1,IC50,HEK293 [19],< 0.312 µM (active)
same,IC50,Tumor necrosis factor,1.4 µM (active) and 140 nM (active)
same,IC50,[20],335 nM (active) and 152 nM (active)
same,IC50,HEK293 [21],> 20 µM (inactive)
same,EC50,HEK293 [22],0.85 µM (active)
same,IC50,HEK293 [23],> 20 µM (inactive)
same,IC50,HEK293 [24],1.3 µM (inactive)
Cc1nn(-c2ccccc2)c2sc(C(=O)N(CC(=O)NC(C)(C)C)Cc3ccco3)cc12,IC50,[25],> 66.6 µM (inactive)
same,IC50,Beta-galactosidase [26],> 66.6 µM (inactive)
